Laboratory results: ChEMBL document CHEMBL3351524, “Toward fluorescent probes for G-protein-coupled receptors (GPCRs)” (J Med Chem, 2014)
Starred links: 1 amine or outer side, 2 acyl side, 3 side chain; linkers in the order of their positions; H or OH if unused. Non-standard residues stand in square brackets, D forms with d. Residues, ends and D or L forms follow the SMILES beside them. ξ: configuration not given here. *: point of attachment. X1 = O=C(O)C[C@@H](C(=O)[*:2])N(c1ccc([N+](=O)[O-])c2nonc12)[*:1]; NBD = O=[N+]([O-])c1ccc(*)c2nonc12; Nle = CCCC[C@H](N)C(=O)O; ξDab = NCCC(N)C(=O)O; Bz = O=C(c1ccccc1)*

molecular target: C-X-C chemokine receptor type 4 (Homo sapiens, UniProt P61073); test: Displacement of [125I]SDF1 from CXCR4 (unknown origin) expressed in CHO cells; type: cell-based
Sequence (P61073 whole entry): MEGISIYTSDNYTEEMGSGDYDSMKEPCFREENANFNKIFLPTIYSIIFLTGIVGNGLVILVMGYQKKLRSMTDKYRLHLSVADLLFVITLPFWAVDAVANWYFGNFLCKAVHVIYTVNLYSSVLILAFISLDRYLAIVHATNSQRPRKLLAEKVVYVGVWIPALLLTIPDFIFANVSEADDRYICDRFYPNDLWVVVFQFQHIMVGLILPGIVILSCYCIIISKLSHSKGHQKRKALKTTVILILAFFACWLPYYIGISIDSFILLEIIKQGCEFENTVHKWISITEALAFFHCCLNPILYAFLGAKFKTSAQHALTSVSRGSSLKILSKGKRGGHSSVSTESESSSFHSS

IC50 [nM] | SMILES
5.2 | CC(=O)N[C@@H](CCCNC(=N)N)C(=O)N[C@@H](CCCNC(=N)N)C(=O)N[C@@H](Cc1cccc2ccccc12)C(=O)N[C@H]1CSSC[C@@H](C(=O)N[C@@H](CCCNC(=N)N)C(N)=O)NC(=O)[C@H](CCCNC(N)=O)NC(=O)[C@H](CCCNC(=N)N)NC(=O)[C@H](Cc2ccc(O)cc2)NC(=O)[C@@H]2CCCN2C(=O)[C@@H](CCCCN)NC(=O)[C@H](CCCNC(=N)N)NC(=O)[C@H](CCCNC(N)=O)NC(=O)[C@H](Cc2ccc(O)cc2)NC1=O
6.7 | CC(=O)N[C@@H](CCCNC(=N)N)C(=O)N[C@@H](CCCNC(=N)N)C(=O)N[C@@H](Cc1cccc2ccccc12)C(=O)N[C@H]1CSSC[C@@H](C(=O)N[C@@H](CCCNC(=N)N)C(N)=O)NC(=O)[C@H](CCCNC(N)=O)NC(=O)[C@H](CCCNC(=N)N)NC(=O)[C@H](Cc2ccc(O)cc2)NC(=O)[C@@H]2CCCN2C(=O)[C@@H](CCC(=O)O)NC(=O)[C@H](CCCNC(=N)N)NC(=O)[C@H](CCCNC(N)=O)NC(=O)[C@H](Cc2ccc(O)cc2)NC1=O

molecular target: T1, Substance-K receptor (Homo sapiens, UniProt P21452); test: Displacement of [3H]GR100679 from NK2 receptor (unknown origin) expressed in CHO/T cells; type: cell-based
T1 sequence (P21452 whole entry): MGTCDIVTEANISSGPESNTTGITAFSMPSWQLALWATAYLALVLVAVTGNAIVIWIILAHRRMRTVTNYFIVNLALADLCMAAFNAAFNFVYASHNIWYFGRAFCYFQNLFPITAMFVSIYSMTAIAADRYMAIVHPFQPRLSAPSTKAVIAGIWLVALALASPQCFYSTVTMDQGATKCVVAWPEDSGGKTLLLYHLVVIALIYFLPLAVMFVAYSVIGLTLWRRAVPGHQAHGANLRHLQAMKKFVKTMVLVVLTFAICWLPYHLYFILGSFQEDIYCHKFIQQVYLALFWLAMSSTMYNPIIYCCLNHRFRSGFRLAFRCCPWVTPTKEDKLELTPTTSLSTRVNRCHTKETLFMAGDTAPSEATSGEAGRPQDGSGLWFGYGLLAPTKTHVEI

Ki [nM] | SMILES
0.155 | CCCC[C@H](NC(=O)[C@@H]1CCCN1C(=O)[C@H]1CCCN1C(=O)[C@H](Cc1ccccc1)NC(=O)[C@@H](Cc1c[nH]c2ccccc12)NC(=O)[C@H](C)NC(=O)[C@H](C)NC(=O)c1ccccc1)C(N)=O (Bz-AA[dW]F[dP]P[Nle]-NH2)
5.89 | CSCC[C@H](NC(=O)[C@H](CC(C)C)NC(=O)CNC(=O)[C@@H](NC(=O)[C@H](Cc1ccccc1)NC(=O)[C@H](CO)NC(=O)[C@H](CC(=O)O)NC(=O)[C@@H](NC(=O)[C@H](CCCCN)NC(=O)[C@H](Cc1cnc[nH]1)Nc1ccc([N+](=O)[O-])c2nonc12)[C@@H](C)O)C(C)C)C(N)=O
8.32 | CCCC[C@H](NC(=O)[C@H](CC(C)C)NC(=O)CNC(=O)[C@@H](NC(=O)[C@H](Cc1ccccc1)NC(=O)[C@H](CO)NC(=O)[C@H](CC(=O)O)Nc1ccc([N+](=O)[O-])c2nonc12)C(C)C)C(N)=O (H-[X1]SFVGL[Nle]-NH2)
1.35 | CCCC[C@H](NC(=O)[C@@H]1CCCN1C(=O)[C@H]1CCCN1C(=O)[C@H](Cc1ccccc1)NC(=O)[C@@H](Cc1c[nH]c2ccccc12)NC(=O)[C@H](C)NC(=O)C(CCNc1ccc([N+](=O)[O-])c2nonc12)NC(=O)c1ccccc1)C(N)=O (some centres undefined)
1.58 | CCCC[C@H](NC(=O)[C@@H]1CCCN1C(=O)[C@H]1CCCN1C(=O)[C@H](Cc1ccccc1)NC(=O)[C@@H](Cc1c[nH]c2ccccc12)NC(=O)[C@H](C)NC(=O)[C@H](CCCCNCC(=O)Nc1ccc([N+](=O)[O-])c2nonc12)NC(=O)c1ccccc1)C(N)=O
1.45 | CCCC[C@H](NC(=O)[C@@H]1CCCN1C(=O)[C@H]1CCCN1C(=O)[C@H](Cc1ccccc1)NC(=O)[C@@H](Cc1c[nH]c2ccccc12)NC(=O)[C@H](C)NC(=O)[C@H](CCCNc1ccc([N+](=O)[O-])c2nonc12)NC(=O)c1ccccc1)C(N)=O
1950 | CCCC[C@H](NC(=O)[C@H](CC(C)C)NC(=O)CNC(=O)C(CCNc1ccc([N+](=O)[O-])c2nonc12)NC(=O)[C@H](Cc1ccccc1)NC(=O)[C@H](CO)NC(=O)[C@H](CC(=O)O)NC(C)=O)C(N)=O (some centres undefined) (Ac-DSF[ξDab](NBD)GL[Nle]-NH2)
